This is an account of results in US20090325944A1, “Methods and Compositions for Modulating Glycosylation” (priority 2006, published 2009).

For this assay, the target named is T1, sOGT (Homo sapiens, UniProt O15294).
T1 construct: ncOGT and sOGT are identical to known splice variants; His8 (C); made in house; host or cells: E. coli BL21(DE3)
T1 sequence (O15294 1-665 isoform O15294-4): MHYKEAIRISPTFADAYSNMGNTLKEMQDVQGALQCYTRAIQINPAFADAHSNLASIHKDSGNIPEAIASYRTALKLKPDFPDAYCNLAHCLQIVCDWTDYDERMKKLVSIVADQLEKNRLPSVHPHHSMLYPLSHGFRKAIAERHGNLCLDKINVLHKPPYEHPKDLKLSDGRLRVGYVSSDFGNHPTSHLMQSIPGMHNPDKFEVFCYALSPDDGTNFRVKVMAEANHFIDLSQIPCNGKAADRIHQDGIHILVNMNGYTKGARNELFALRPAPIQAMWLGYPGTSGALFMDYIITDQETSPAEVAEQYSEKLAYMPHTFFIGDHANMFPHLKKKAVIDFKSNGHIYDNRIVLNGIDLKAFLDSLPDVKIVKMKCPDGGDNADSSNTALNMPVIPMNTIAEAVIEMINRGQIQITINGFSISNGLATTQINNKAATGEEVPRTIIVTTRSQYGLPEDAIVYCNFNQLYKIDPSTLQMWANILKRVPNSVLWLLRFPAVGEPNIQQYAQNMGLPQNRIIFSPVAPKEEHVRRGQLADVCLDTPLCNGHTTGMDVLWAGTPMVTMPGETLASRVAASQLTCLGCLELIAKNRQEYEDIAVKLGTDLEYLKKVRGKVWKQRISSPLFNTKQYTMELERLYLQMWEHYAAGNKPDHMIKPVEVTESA
The assay can be described thus: Fluorescence polarization displacement of probe 3 from sOGT (validation with UDP and UDP-GlcNAc). The format is binding. As to the method:
20 μL of this solution is transferred to wells of a 384-well microplate. […] Fluorescence polarization was measured using a Perkin Elmer Envision® microplate reader. Bach series was performed in triplicate and the average of each data point was converted from mP to anisotropy then fitted to the following equation:
[L]0=(KD(Amax−A)/Kd(A−Amin)+1)([E]0−Kd(A−Amin)/(Amax−A)−[t]0(A−Amin)/(Amax−Amin)) eq 3
where A=measured anisotropy at a particular total concentration of ligand (L), sOGT (E) and probe 3 (t), Amin=minimum polarization (i.e., anisotropy of free probe), Amax=final anisotropy (i.e., anisotropy of probe 3 bound entirely to sOGT), KD=dissociation constant of the ligand, Kd=dissociation constant of the probe 3.
Background: In fluorescence polarisation assays a small probe gives low polarisation when free and higher when bound to something large.

One may read the Kd as a measure of binding affinity in units of concentration.

As to `O=c1ccn([C@@H]2O[C@H](COP(=O)(O)OP(=O)(O)O)[C@@H](O)[C@H]2O)c(=O)[nH]1` [UDP], for the setting “50 nM probe 3, […] sOGT, ligand 50 μM to 98 nM, read-out: KD (dissociation constant) from displacement of probe 3 from sOGT”, the equilibrium dissociation constant (Kd) was found to be 800 ± 300 nM. Also, the “extent of displacement of probe 3 from sOGT” value (at high concentrations of ligand) is on record as “completely displaced probe 3 from sOGT”.
